Source: patent EP2168965A1, “Substituted imidazopyridine, imidazopyrazine, imidazopyridazine and imidazopyrimidine derivatives as melanocortin-4 receptor antagonists” (Santhera Pharmaceuticals (Schweiz) AG, priority 2008, dated 2010)
Like-named read-outs stand apart in the source and are kept apart here.

Columns and labels:
hMC-4R [1] = molecular target: T1, hMC-4R (Homo sapiens, UniProt P32245); assay: Functional assay: membrane based cAMP fluorescence polarization assay for agonistic activity; assay type: biochemical; settings: read-out: % activation functional assay
T1 construct: expressed in transfected cells; host or cells: HEK293 cells (membrane preparations)

hMC-4R [2] = molecular target: T1, hMC-4R; assay: Membrane binding assay: competition with fluorescence labeled NDP-alpha-MSH, fluorescence polarization
Protocol: A membrane binding assay is used to identify competitive inhibitors of fluorescence labeled NDP-alpha-MSH binding to HEK293 cell membrane preparations expressing human melanocortin receptors.
The test compound or unlabeled NDP-alpha-MSH is dispensed at varying concentrations to a 384 well microtiter plate. Fluorescence labeled NDP-alpha-MSH is dispensed at a single concentration, followed by addition of membrane preparations. The plate is incubated for 5 h at room temperature.
The degree of fluorescence polarization is determined with a fluorescence polarization microplate reader.

[3] = HEK293 cell membrane preparations expressing human melanocortin receptors, 5 h at room temperature, read-out: hMC-4R binding assay IC50

T1 sequence (P32245 whole entry): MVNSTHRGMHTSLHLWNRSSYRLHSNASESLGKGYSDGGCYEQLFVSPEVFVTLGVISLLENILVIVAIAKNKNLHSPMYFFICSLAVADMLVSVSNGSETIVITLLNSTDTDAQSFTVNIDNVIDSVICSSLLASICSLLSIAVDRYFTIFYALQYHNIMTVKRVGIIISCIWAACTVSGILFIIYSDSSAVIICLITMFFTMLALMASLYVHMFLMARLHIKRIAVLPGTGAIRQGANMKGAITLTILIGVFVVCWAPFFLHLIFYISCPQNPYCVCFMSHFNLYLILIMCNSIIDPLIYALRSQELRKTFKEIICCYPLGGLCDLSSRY

Compound	Emax (hMC-4R [1]) [%]	IC50 (hMC-4R [2]) [nM]	IC50 (hMC-4R [2]; [3]) [nM]
CCOC(=O)c1nc2ccc(C(=O)N(CCC(C)C)CCC(C)C)cn2c1C#CCN1CCCC1 [Example 1]	0	100 to 1000	–
CC(C)CCN(CCC(C)C)C(=O)c1ccc2ncc(C#CCN3CCCC3)n2c1 [Example 2]	0	–	100 to 1000
CC(C)CCN(CCC(C)C)C(=O)c1ccc2nc(-c3ccccc3)c(C#CCN3CCCC3)n2c1 [Example 3]	0	–	> 1000
CC(C)CCN(CCC(C)C)C(=O)c1ccc2nc(C#Cc3ccccc3)c(C#CCN3CCCC3)n2c1 [Example 4]	5	–	100 to 1000
CC(C)CCN(CCC(C)C)C(=O)c1ccc2nc(-c3cnco3)c(C#CCN3CCCC3)n2c1 [Example 5]	0	–	< 100
CC(C)CCN(CCC(C)C)C(=O)c1ccc2nc(C#N)c(C#CCN3CCCC3)n2c1 [Example 6]	6	> 1000	–
CC(C)CCN(CCC(C)C)C(=O)c1ccc2nc(-c3ccoc3)c(C#CCN3CCCC3)n2c1 [Example 7]	3	–	100 to 1000
CC(C)CCN(CCC(C)C)C(=O)c1ccc2nc(-c3ccco3)c(C#CCN3CCCC3)n2c1 [Example 8]	5	–	100 to 1000
CC(C)CCN(CCC(C)C)C(=O)c1ccc2nc(Nc3ncccn3)c(C#CCN3CCCC3)n2c1 [Example 9]	-12	–	100 to 1000
CC(C)CCN(CCC(C)C)C(=O)c1ccc2nc(N3CCOCC3)c(C#CCN3CCCC3)n2c1 [Example 10]	0	–	100 to 1000
CC(C)CCN(CCC(C)C)C(=O)c1ccc2nc(Nc3ccccn3)c(C#CCN3CCCC3)n2c1 [Example 11]	-7	–	< 100
COc1cccc(Nc2nc3ccc(C(=O)N(CCC(C)C)CCC(C)C)cn3c2C#CCN2CCCC2)c1 [Example 12]	-3	–	< 100
CC(C)CCN(CCC(C)C)C(=O)c1ccc2nc(N(C)c3ccccn3)c(C#CCN3CCCC3)n2c1 [Example 13]	-4	–	100 to 1000
COc1cccc(N(C)c2nc3ccc(C(=O)N(CCC(C)C)CCC(C)C)cn3c2C#CCN2CCCC2)c1 [Example 14]	0	–	100 to 1000
CC(C)CCN(CCC(C)C)C(=O)c1ccc2nc(-c3cnn(CC4OCCO4)c3)c(C#CCN3CCCC3)n2c1 [Example 15]	-4	–	< 100
CC(C)CCN(CCC(C)C)C(=O)c1ccc2nc(C3=CCN(C(=O)OC(C)(C)C)CC3)c(C#CCN3CCCC3)n2c1 [Example 16]	-11	–	> 1000
CC(C)CCN(CCC(C)C)C(=O)c1ccc2nc(-c3cn[nH]c3)c(C#CCN3CCCC3)n2c1 [Example 17]	-6	–	< 100
COc1cc(Nc2nc3ccc(C(=O)N(CCC(C)C)CCC(C)C)cn3c2C#CCN2CCCC2)ccc1F [Example 18]	-5	–	< 100

Compound	Emax (hMC-4R [1]) [%]	IC50 (hMC-4R [2]) [nM]	IC50 (hMC-4R [2]; [3]) [nM]
COc1cc(Nc2nc3ccc(C(=O)N(CCC(C)C)CCC(C)C)cn3c2C#CCN2CCCC2)ccn1 [Example 19]	-13	–	< 100
COc1ccc(Nc2nc3ccc(C(=O)N(CCC(C)C)CCC(C)C)cn3c2C#CCN2CCCC2)cn1 [Example 20]	-16	–	< 100
CC(C)CCN(CCC(C)C)C(=O)c1ccc2nc(-c3ccc4nccn4c3)c(C#CCN3CCCC3)n2c1 [Example 21]	-12	–	< 100
CC(C)CCN(CCC(C)C)C(=O)c1ccc2nc(-c3ccc(F)c(F)c3)c(C#CCN3CCCC3)n2c1 [Example 22]	0	–	100 to 1000
COc1ncc(-c2nc3ccc(C(=O)N(CCC(C)C)CCC(C)C)cn3c2C#CCN2CCCC2)cc1F [Example 23]	-9	–	100 to 1000
COc1cc(-c2nc3ccc(C(=O)N(CCC(C)C)CCC(C)C)cn3c2C#CCN2CCCC2)ccc1F [Example 24]	-2	–	100 to 1000
COc1cc(F)cc(-c2nc3ccc(C(=O)N(CCC(C)C)CCC(C)C)cn3c2C#CCN2CCCC2)c1 [Example 25]	-2	–	> 1000
CC(C)CCN(CCC(C)C)C(=O)c1ccc2nc(-c3ccc(C#N)c(F)c3)c(C#CCN3CCCC3)n2c1 [Example 26]	-4	–	100 to 1000
CC(C)CCN(CCC(C)C)C(=O)c1ccc2nc(-c3cc(F)cc(F)c3)c(C#CCN3CCCC3)n2c1 [Example 27]	-3	–	> 1000
COc1ccc(Nc2nc3ccc(C(=O)N(CCC(C)C)CCC(C)C)cn3c2C#CCN2CCCC2)cc1F [Example 28]	-12	–	< 100
CC(C)CCN(CCC(C)C)C(=O)c1ccc2nc(-c3cnc4c(c3)OCCN4C)c(C#CCN3CCCC3)n2c1 [Example 29]	-5	–	< 100
Cc1n[nH]cc1-c1nc2ccc(C(=O)N(CCC(C)C)CCC(C)C)cn2c1C#CCN1CCCC1 [Example 30]	4	–	100 to 1000
Cc1cc(-c2nc3ccc(C(=O)N(CCC(C)C)CCC(C)C)cn3c2C#CCN2CCCC2)n(C)n1 [Example 31]	3	–	100 to 1000
COc1cccc(-c2nc3ccc(C(=O)N(CCC(C)C)CCC(C)C)cn3c2C#CCN2CCCC2)n1 [Example 32]	-4	–	100 to 1000
CC(C)CCN(CCC(C)C)C(=O)c1ccc2nc(-c3ccc(=O)n(C)c3)c(C#CCN3CCCC3)n2c1 [Example 33]	–	–	< 100
COc1ncc(-c2nc3ccc(C(=O)N(CCC(C)C)CCC(C)C)cn3c2C#CCN2CCCC2)cn1 [Example 34]	–	–	< 100
CC(C)CCN(CCC(C)C)C(=O)c1ccc2nc(-c3ccc4nccnc4c3)c(C#CCN3CCCC3)n2c1 [Example 35]	–	–	< 100
CC(C)CCN(CCC(C)C)C(=O)c1ccc2nc(-c3c[nH]nc3C(F)(F)F)c(C#CCN3CCCC3)n2c1 [Example 36]	–	–	100 to 1000
